Source: US6780996B2, “Process for the preparation of 7-substituted-3 quinolinecarbonitriles” (Wyeth Holdings Corporation, priority 2002, dated 2004)

melting point: 220 to 222 °C
SMILES: COc1cc(Nc2c(C#N)cnc3cc(Sc4ccccc4)c(OC)cc23)c(Cl)cc1Cl [Example 8, 4-[(2,4-Dichloro-5-methoxyphenyl)amino]-6-methoxy-7-phenylsulfanyl-3-quinolinecarbonitrile]
